Patent US11173167B2, “Nutritional intervention for improving muscular function and strength” (Metabolic Technologies, Inc., priority 2008, dated 2021)

What was measured:
[1] = after HMB is fed; cited from earlier work
[2] = 12-week HMB / Vitamin D study, urinary HMB concentration (supplement compliance); format: in vivo, human; details: clean catch urine sample, HMB 3.0 g/day
Description: The average 25OH-VitD3 concentration at wk 0 was 26.5 ng/ml. […] However, subjects either supplemented with a control or HMB alone decreased their serum 25OH-VitD3 level by 2.0 ng/mL. A clean catch urine sample was used to test for supplement compliance.

[3] = tested on: Mouse C2C12 skeletal muscle cell myoblasts fused into myotubes; assay: Protein degradation and synthesis by leucine isotope release/disappearance in C2C12 myotubes with dexamethasone; format: cell-based; details: 24 h, dexamethasone 100 nM
Description: Mouse C2C12 skeletal muscle cell myoblasts were grown in culture under standard conditions and fused into myotubes following the methods of Menconi et al. (95). Four separate studies were conducted during different weeks. The first 3 studies consisted of 4 replicate dishes per treatment and the fourth study consisted of 6 replicate dishes per treatment. The treatments were applied to the cells during the 24 h measurement period. Treatments applied were control, 25OH-VitD3 (200 ng/mL), HMB (200 μM HMB as Ca(HMB)2, and the combination of HMB and 25OH-VitD3. Dexamethasone (100 nM) was added to the culture medium during the treatment/measurement period to stimulate protein degradation. Calcium in the form of calcium chloride was added to the control and 25OH-VitD3 treatments so that all the treatments were balanced for calcium. For measurement of protein degradation during the treatment period, leucine free medium was obtained to which [5,5,5]^2H3-leucine was added so that the isotopes of leucine (natural leucine and [1-^13C]-leucine) could be measured as they were released into the medium through the protein degradation process. The measurement medium was sampled at 2 and 24 h and samples stored at −80° C. until analyzed. The samples were analyzed for leucine using a gas chromatography (model 6890, Hewlett Packard, Palo, Calif.) mass spectrometry (model 5973, Hewlett Packard, Palo, Calif.) and the gas chromatography column used for the analysis was a Zebron ZB-5. (Phenomenex, Torrence, Calif.). Natural leucine, [1-^13C]-leucine, and [5,5,5^2H3]-leucine were monitored at 302, 303, and 305 AMU, respectively. Corrections for sampling at 2 h and for leucine utilization from the measurement media were made. […] Concentrations of proteins were analyzed following the microplate assay instructions using a Pierce BCA protein assay kit (Thermo Scientific, Rockford, Ill.). DNA was measured flourometrically using the Quant-iT™ dsDNA assay kit from Invitrogen (Carlsbad, Calif.). […]

[4] = 12-week HMB / Vitamin D study, knee extension strength (BIODEX peak torque); format: in vivo, human; details: older adults, 8 weeks
Source text: (§1) Prior to the start of the experimental period, we randomly assigned nutritional supplements to each subject using computer-generated random numbers in a double-blind fashion. Treatments were arranged in a 2×2 factorial design with two levels of HMB (0 & 3.0 g/d) and two levels of Vitamin D (0 & 2,000 IU/d). We assigned subjects to one of the following four treatments:
The exercise testing and training session was supervised by trained research associates. Resting heart rate and blood pressure measurements were obtained prior to strength measurements. Enrolled individuals participated in an exercise training program consisting of strength training exercises with Theraband® stretch cords (resistance training) and jumping. The equipment consisted of items that can easily be used at home. Exercise sessions were 3 times a week for 12 weeks. Each exercise session was about 45-60 minutes. […]
Body composition measurements were obtained at 0, 4, 8, and 12 weeks. […] Handgrip strength was measured using a handgrip dynamometer. Peak torque for knee extension and flexion was measured at 60, 90 and 120°/sec. Peak torque for elbow extension and flexion was measured at 60 and 120°/sec.
(§2) Least Squares Mean±SEM were calculated strength and functionality changes in each variable over the 12-week period. […] Statistical significance was determined for p<0.05 and a trend was determined for 0.05<p<0.10.

[5] = 12-week 2x2 HMB / Vitamin D study in older adults with exercise training, serum 25OH-VitD3; format: in vivo, human; details: control or HMB alone, no Vitamin D supplement
Source text: Elderly women (n=30) and men (n=16) were recruited into a double-blinded controlled study. The older adults were recruited from two locations in South Dakota: Brookings and Sioux Falls. The subjects underwent an initial screening and were randomized to treatments. Testing consisted of an initial (0 weeks) and follow-up testing at 4, 8 and 12 weeks over the course of the 12-week study.
as §1
The treatments were supplied in capsules of equal size and color and contained equal amounts of calcium and phosphorus. The subjects were instructed to take three capsules two times a day. Each subject was supplied with a one-week supply of the supplement, allocated by subject number and returned each week for an additional 1-week supply. […]
as §2

[6] = 12-week HMB / Vitamin D study, muscular performance index; format: in vivo, human; details: eight week performance index, older adults
Source text: as §1
Functionality tests included: “Get-up-and-Go” performance (speed and gate), and “Get-up” performance. The “Get-up-and-Go” test consisted of timed measurements of the subject's starting from a seated position, standing, walking forward 3 meters, turning around, walking back to the chair, and sitting down. […] The complete descriptions and standardization of the tests are outlined in the Physical Dimensions of Aging by Waneen W. Spirduso (Human Kinetics, 1995).
A muscular performance index was calculated by summing the percentage change from baseline for Get-up-and-Go, Get-up, handgrip, peak torque for knee extension and flexion (60, 90 and 120°/sec) and peak torque for elbow extension and flexion (60°/sec).
as §2

[7] = target: T1, 1-alpha, 25-Vitamin D hydroxylase (Homo sapiens, UniProt O15528); details: human vascular smooth muscle; cited from earlier work
T1 sequence (O15528 1-508): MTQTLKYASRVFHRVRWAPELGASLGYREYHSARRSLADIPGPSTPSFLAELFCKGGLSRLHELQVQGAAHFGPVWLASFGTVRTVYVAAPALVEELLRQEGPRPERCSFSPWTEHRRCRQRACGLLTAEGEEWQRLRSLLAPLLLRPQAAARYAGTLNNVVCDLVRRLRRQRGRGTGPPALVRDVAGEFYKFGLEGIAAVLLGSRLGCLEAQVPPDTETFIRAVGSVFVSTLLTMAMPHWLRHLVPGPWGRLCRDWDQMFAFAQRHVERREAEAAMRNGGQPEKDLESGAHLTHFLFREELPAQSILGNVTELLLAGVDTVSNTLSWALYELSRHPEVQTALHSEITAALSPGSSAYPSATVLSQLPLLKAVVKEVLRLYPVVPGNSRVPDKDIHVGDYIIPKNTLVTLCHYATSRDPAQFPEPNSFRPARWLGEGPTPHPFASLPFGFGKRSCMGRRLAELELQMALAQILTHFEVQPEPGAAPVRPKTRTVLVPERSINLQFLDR

β-hydroxy-β-methylbutyrate [HMB]
loss of HMB to urine [1]: 20-50%
increase in urinary HMB concentration [2]: 50 fold
decrease in protein degradation measured by [1-13C]-leucine ([3]; HMB 200 μM): 6.3%
decrease in protein degradation measured by natural leucine ([3]; HMB 200 μM): 7.6%
knee extension strength compared to control-treated subjects [4]: Neither the HMB alone nor the Vitamin D-treated subjects increased knee extension strength
decrease in serum 25OH-VitD3 level [5]: 2.0 ng/mL
increase in the performance index over the control [6]: 35%

C=C1CC[C@H](O)C/C1=C/C=C1\CCC[C@]2(C)[C@@H]([C@H](C)CCCC(C)(C)O)CC[C@@H]12 [25OH-VitD3]
Km [7]: 25 ng/mL

C=C1CC[C@H](O)C/C1=C/C=C1\CCC[C@]2(C)[C@@H]([C@H](C)CCCC(C)C)CC[C@@H]12 [Vitamin D, cholecalciferol]
dexamethasone stimulated protein degradation [3]: tended to decrease dexamethasone stimulated protein degradation in only the faster turnover protein pool
knee extension strength compared to control-treated subjects [4]: Neither the HMB alone nor the Vitamin D-treated subjects increased knee extension strength
increase in the performance index over the control [6]: 58%
